In brackets after ≈: the same amount, converted by molar mass. Activity calls are given as the source filed them. No cut-off for these calls is given here.
Experiments:
Human alphaherpesvirus 1 [1] = test: Cytotoxicity was evaluated against HSV-1 at 200-400 uM; IA=inactive; format: functional, organism-based
[2] = tested on: Mammalian orthoreovirus 1; test: Cytotoxicity was evaluated against Reo virus-1 at 200-400 uM; IA=inactive; format: functional, organism-based; conditions: reo virus type 1
Human alphaherpesvirus 3 [3] = test: Cytotoxicity was evaluated against VZV at 200-400 uM; IA=inactive; format: functional, organism-based
Human respirovirus 3 [4] = test: Cytotoxicity was evaluated against Parainfluenza-3 virus at 200-400 uM; IA=inactive; format: functional, organism-based
Punta Toro virus [5] = test: Cytotoxicity was evaluated against Punta Toro virus at 200-400 uM; IA=inactive; format: functional, organism-based
Human betaherpesvirus 5 [6] = test: Cytotoxicity was evaluated against HCMV at 200-400 uM; IA=inactive; format: functional, organism-based
Human alphaherpesvirus 2 [7] = test: Cytotoxicity was evaluated against HSV-2 at 200-400 uM; IA=inactive; format: functional, organism-based
Coxsackievirus B4 [8] = test: Cytotoxicity was evaluated against Coxsackie B4 virus at 200-400 uM; IA=inactive; format: functional, organism-based
[9] = tested on: Respiratory syncytial virus; test: Cytotoxicity was evaluated against Respiratory syncytial virus at 200-400 uM; IA=inactive; format: functional, organism-based
[10] = tested on: Vesicular stomatitis virus
Vaccinia virus = conditions: Orthopoxvirus vaccinia
[11] = tested on: Human immunodeficiency virus 2; test: Cytotoxicity was evaluated against HIV-2 at 200-400 uM; IA=inactive; format: functional, organism-based
[12] = tested on: Human immunodeficiency virus 1; test: Cytotoxicity was evaluated against HIV-1 at 200-400 uM; IA=inactive; format: functional, organism-based
Sindbis virus [13] = test: Cytotoxicity was evaluated against Sindbis virus at 200-400 uM; IA=inactive; format: functional, organism-based
Human alphaherpesvirus 1 [14] = test: Minimum inhibitory concentration required to reduce HSV-1 induced cytopathogenicity by 50%; format: functional
Human alphaherpesvirus 3 [15] = test: Minimum inhibitory concentration required to reduce VZV induced cytopathogenicity by 50%; format: functional
Human alphaherpesvirus 2 [16] = test: Minimum inhibitory concentration required to reduce HSV-2 induced cytopathogenicity by 50%; format: functional
[17] = tested on: Human immunodeficiency virus 2; test: Minimum inhibitory concentration required to reduce HIV-2 induced cytopathogenicity by 50%; format: functional
[18] = tested on: Respiratory syncytial virus; test: Minimum inhibitory concentration required to reduce Respiratory syncytial virus induced cytopathogenicity by 50%; format: functional; conditions: human respiratory syncytial virus
Human respirovirus 3 [19] = test: Minimum inhibitory concentration required to reduce Parainfluenza-3 virus induced cytopathogenicity by 50%; format: functional
Sindbis virus [20] = test: Minimum inhibitory concentration required to reduce Sindbis virus induced cytopathogenicity by 50%; format: functional
Human betaherpesvirus 5 [21] = test: Minimum inhibitory concentration required to reduce HCMV induced cytopathogenicity by 50%; format: functional
Punta Toro virus [22] = test: Minimum inhibitory concentration required to reduce Punta Toro virus induced cytopathogenicity by 50%; format: functional
Coxsackievirus B4 [23] = test: Minimum inhibitory concentration required to reduce Coxsackie B4 virus induced cytopathogenicity by 50%; format: functional; conditions: Enterovirus B
[24] = tested on: Human immunodeficiency virus 1; test: Minimum inhibitory concentration required to reduce HIV-1 induced cytopathogenicity by 50%; format: functional
[25] = tested on: Mammalian orthoreovirus 1; test: Minimum inhibitory concentration required to reduce Reo virus-1 induced cytopathogenicity by 50%; format: functional, reo virus type 1
[26] = tested on: Vesicular stomatitis virus; test: Minimum inhibitory concentration required to reduce Vesicular stomatitis virus induced cytopathogenicity by 50%; format: functional
Human alphaherpesvirus 1 [27] = test: Minimum inhibitory concentration required to reduce HSV-1(KOS) induced cytopathogenicity by 50%; format: functional

Compound	Cytotoxicity (Human alphaherpesvirus 1 [1])	Cytotoxicity [2]	Cytotoxicity (Human alphaherpesvirus 3 [3])	Cytotoxicity (Human respirovirus 3 [4])	Cytotoxicity (Punta Toro virus [5])	Cytotoxicity (Human betaherpesvirus 5 [6])	Cytotoxicity (Human alphaherpesvirus 2 [7])	Cytotoxicity (Coxsackievirus B4 [8])	Cytotoxicity [9]	Cytotoxicity [10]	Cytotoxicity (Vaccinia virus)	Cytotoxicity [11]	Cytotoxicity [12]	Cytotoxicity (Sindbis virus [13])	MIC (Human alphaherpesvirus 3 [15])	MIC (Human alphaherpesvirus 2 [16])	MIC [17]	MIC [18]	MIC (Human respirovirus 3 [19])	MIC (Sindbis virus [20])	also measured
Nc1ncnc2c1ncn2C1S[C@@H](COCc2ccccc2)[C@H](OCc2ccccc2)[C@H]1OCc1ccccc1 (stereo partly drawn)	inactive	inactive	inactive	inactive	inactive	inactive	inactive	inactive	inactive	inactive	inactive	inactive	inactive	inactive							
CC(=O)OC1S[C@@H](COCc2ccccc2)[C@H](OCc2ccccc2)[C@H]1OCc1ccccc1 (stereo partly drawn)	inactive	inactive	inactive	inactive	inactive	inactive	inactive	inactive	inactive	inactive	inactive	inactive	inactive	inactive							
O=c1ccn([C@@H]2S[C@@H](CO)[C@H](O)[C@H]2O)c(=O)[nH]1															400 µg/mL (≈ 1540 µM)	400 µg/mL (≈ 1540 µM)	400 µg/mL (≈ 1540 µM)	400 µg/mL (≈ 1540 µM)	400 µg/mL (≈ 1540 µM)	400 µg/mL (≈ 1540 µM)	MIC (Human alphaherpesvirus 1 [14]): 400 µg/mL (≈ 1540 µM); MIC (Human betaherpesvirus 5 [21]): 400 µg/mL (≈ 1540 µM); MIC (Punta Toro virus [22]): 400 µg/mL (≈ 1540 µM); MIC (Coxsackievirus B4 [23]): 400 µg/mL (≈ 1540 µM); MIC [24]: 400 µg/mL (≈ 1540 µM); MIC [25]: 400 µg/mL (≈ 1540 µM); MIC [26]: 400 µg/mL (≈ 1540 µM)
O=c1nc(-n2cncn2)ccn1C1S[C@@H](COCc2ccccc2)[C@H](OCc2ccccc2)[C@H]1OCc1ccccc1 (stereo partly drawn)	inactive	inactive	inactive	inactive	inactive	inactive	inactive	inactive	inactive	inactive	inactive	inactive	inactive	inactive							
Nc1ccn(C2S[C@@H](CO)[C@H](O)[C@H]2O)c(=O)n1 (stereo partly drawn)															400 µg/mL (≈ 1540 µM)	400 µg/mL (≈ 1540 µM)	400 µg/mL (≈ 1540 µM)	400 µg/mL (≈ 1540 µM)	400 µg/mL (≈ 1540 µM)	400 µg/mL (≈ 1540 µM)	MIC (Human alphaherpesvirus 1 [14]): 400 µg/mL (≈ 1540 µM); MIC (Human betaherpesvirus 5 [21]): 400 µg/mL (≈ 1540 µM); MIC (Punta Toro virus [22]): 400 µg/mL (≈ 1540 µM); MIC (Coxsackievirus B4 [23]): 400 µg/mL (≈ 1540 µM); MIC [24]: 400 µg/mL (≈ 1540 µM); MIC [25]: 400 µg/mL (≈ 1540 µM); MIC [26]: 400 µg/mL (≈ 1540 µM)
Cc1cn([C@H]2S[C@@H](CO)[C@H](O)[C@H]2O)c(=O)[nH]c1=O															400 µg/mL (≈ 1460 µM)	400 µg/mL (≈ 1460 µM)	400 µg/mL (≈ 1460 µM)	400 µg/mL (≈ 1460 µM)	400 µg/mL (≈ 1460 µM)	400 µg/mL (≈ 1460 µM)	MIC (Human alphaherpesvirus 1 [14]): 400 µg/mL (≈ 1460 µM); MIC (Human betaherpesvirus 5 [21]): 400 µg/mL (≈ 1460 µM); MIC (Punta Toro virus [22]): 400 µg/mL (≈ 1460 µM); MIC (Coxsackievirus B4 [23]): 400 µg/mL (≈ 1460 µM); MIC [24]: 400 µg/mL (≈ 1460 µM); MIC [25]: 400 µg/mL (≈ 1460 µM); MIC [26]: 400 µg/mL (≈ 1460 µM)
O=c1ccn([C@H]2S[C@@H](CO)[C@H](O)[C@H]2O)c(=O)[nH]1															400 µg/mL (≈ 1540 µM)	400 µg/mL (≈ 1540 µM)	400 µg/mL (≈ 1540 µM)	400 µg/mL (≈ 1540 µM)	400 µg/mL (≈ 1540 µM)	400 µg/mL (≈ 1540 µM)	MIC (Human alphaherpesvirus 1 [27]): 48 µg/mL (≈ 184 µM); MIC (Human betaherpesvirus 5 [21]): 400 µg/mL (≈ 1540 µM); MIC (Punta Toro virus [22]): 400 µg/mL (≈ 1540 µM); MIC (Coxsackievirus B4 [23]): 400 µg/mL (≈ 1540 µM); MIC [24]: 400 µg/mL (≈ 1540 µM); MIC [25]: 400 µg/mL (≈ 1540 µM); MIC [26]: 400 µg/mL (≈ 1540 µM)
O=c1[nH]c(=O)n(C2S[C@@H](CO)[C@H](O)[C@H]2O)cc1Cl (stereo partly drawn)	inactive	inactive	inactive	inactive	inactive	inactive	inactive	inactive	inactive	inactive	inactive	inactive	inactive	inactive							
O=c1[nH]c(=O)n(C2S[C@@H](CO)[C@H](O)[C@H]2O)cc1F (stereo partly drawn)	inactive	inactive	inactive	inactive	inactive	inactive	inactive	inactive	inactive	inactive	inactive	inactive	inactive	inactive							
Cc1cn([C@@H]2S[C@@H](CO)[C@H](O)[C@H]2O)c(=O)[nH]c1=O															400 µg/mL (≈ 1460 µM)	400 µg/mL (≈ 1460 µM)	400 µg/mL (≈ 1460 µM)	400 µg/mL (≈ 1460 µM)	400 µg/mL (≈ 1460 µM)	400 µg/mL (≈ 1460 µM)	MIC (Human alphaherpesvirus 1 [27]): 48 µg/mL (≈ 175 µM); MIC (Human betaherpesvirus 5 [21]): 400 µg/mL (≈ 1460 µM); MIC (Punta Toro virus [22]): 400 µg/mL (≈ 1460 µM); MIC (Coxsackievirus B4 [23]): 400 µg/mL (≈ 1460 µM); MIC [24]: 400 µg/mL (≈ 1460 µM); MIC [25]: 400 µg/mL (≈ 1460 µM); MIC [26]: 400 µg/mL (≈ 1460 µM)
O=c1[nH]c(=O)n(C2S[C@@H](CO)[C@H](O)[C@H]2O)cc1Br (stereo partly drawn)	inactive	inactive	inactive	inactive	inactive	inactive	inactive	inactive	inactive	inactive	inactive	inactive	inactive	inactive							
Nc1ncnc2c1ncn2[C@H]1S[C@@H](CO)[C@H](O)[C@H]1O															400 µg/mL (≈ 1410 µM)	400 µg/mL (≈ 1410 µM)	400 µg/mL (≈ 1410 µM)	400 µg/mL (≈ 1410 µM)	400 µg/mL (≈ 1410 µM)	400 µg/mL (≈ 1410 µM)	MIC (Human alphaherpesvirus 1 [14]): 400 µg/mL (≈ 1410 µM); MIC (Human betaherpesvirus 5 [21]): 400 µg/mL (≈ 1410 µM); MIC (Punta Toro virus [22]): 400 µg/mL (≈ 1410 µM); MIC (Coxsackievirus B4 [23]): 400 µg/mL (≈ 1410 µM); MIC [24]: 400 µg/mL (≈ 1410 µM); MIC [25]: 48 µg/mL (≈ 169 µM); MIC [26]: 400 µg/mL (≈ 1410 µM)
Nc1ccn(C2S[C@@H](COCc3ccccc3)[C@H](OCc3ccccc3)[C@H]2OCc2ccccc2)c(=O)n1 (stereo partly drawn)	inactive	inactive	inactive	inactive	inactive	inactive	inactive	inactive	inactive	inactive	inactive	inactive	inactive	inactive							
Nc1ncnc2c1ncn2[C@@H]1S[C@@H](CO)[C@H](O)[C@H]1O															400 µg/mL (≈ 1410 µM)	400 µg/mL (≈ 1410 µM)	400 µg/mL (≈ 1410 µM)	400 µg/mL (≈ 1410 µM)	400 µg/mL (≈ 1410 µM)	400 µg/mL (≈ 1410 µM)	MIC (Human alphaherpesvirus 1 [14]): 400 µg/mL (≈ 1410 µM); MIC (Human betaherpesvirus 5 [21]): 400 µg/mL (≈ 1410 µM); MIC (Punta Toro virus [22]): 400 µg/mL (≈ 1410 µM); MIC (Coxsackievirus B4 [23]): 400 µg/mL (≈ 1410 µM); MIC [24]: 400 µg/mL (≈ 1410 µM); MIC [25]: 400 µg/mL (≈ 1410 µM); MIC [26]: 400 µg/mL (≈ 1410 µM)
C[C@@]1(n2ccc(N)nc2=O)CS[C@H](CO)O1	inactive	inactive	inactive	inactive	inactive	inactive	inactive	inactive	inactive	inactive	inactive	inactive	inactive	inactive							

From ChEMBL document CHEMBL1134025, “Thiosugars. Part 9: synthesis and biological evaluation of some 4'-thio-L-arabino nucleoside analogues” (2001)
